In ChEMBL document CHEMBL4020786, “Discovery of pyrazolo[1,5-a]pyrimidine-3-carbonitrile derivatives as a new class of histone lysine demethylase 4D (KDM4D) inhibitors” (Bioorg Med Chem Lett, 2017):
pIC50: −log10 of the molar value.

Tests used:
[1] = target: T1, Lysine-specific demethylase 4D (Homo sapiens) (UniProt Q6B0I6); assay: Inhibition of KDM4D (unknown origin) at 10 uM using biotinylated H3 derived peptide as substrate preincubated for 15 mins followed by substrate addition measured after 1 hr by AlphaLISA method
T1 sequence (whole entry): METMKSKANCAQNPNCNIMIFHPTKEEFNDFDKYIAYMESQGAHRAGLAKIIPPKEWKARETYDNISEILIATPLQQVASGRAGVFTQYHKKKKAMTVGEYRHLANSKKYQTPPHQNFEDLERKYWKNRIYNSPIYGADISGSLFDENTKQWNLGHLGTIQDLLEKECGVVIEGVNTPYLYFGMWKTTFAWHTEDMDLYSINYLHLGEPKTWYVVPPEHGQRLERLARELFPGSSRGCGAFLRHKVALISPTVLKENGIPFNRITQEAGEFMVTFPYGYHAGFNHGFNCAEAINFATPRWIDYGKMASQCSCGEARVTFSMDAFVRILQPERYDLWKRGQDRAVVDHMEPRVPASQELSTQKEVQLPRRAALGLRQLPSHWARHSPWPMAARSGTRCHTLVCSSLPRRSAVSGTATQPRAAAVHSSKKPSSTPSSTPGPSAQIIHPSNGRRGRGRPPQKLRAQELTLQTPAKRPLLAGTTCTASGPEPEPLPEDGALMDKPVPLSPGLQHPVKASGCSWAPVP

[2] = target: Lysine-specific demethylase 3B (Homo sapiens) (UniProt Q7LBC6); assay: Inhibition of KDM3B (unknown origin) at 10 uM
Lysine-specific demethylase 3B (Homo sapiens), sequence (Q7LBC6 whole entry): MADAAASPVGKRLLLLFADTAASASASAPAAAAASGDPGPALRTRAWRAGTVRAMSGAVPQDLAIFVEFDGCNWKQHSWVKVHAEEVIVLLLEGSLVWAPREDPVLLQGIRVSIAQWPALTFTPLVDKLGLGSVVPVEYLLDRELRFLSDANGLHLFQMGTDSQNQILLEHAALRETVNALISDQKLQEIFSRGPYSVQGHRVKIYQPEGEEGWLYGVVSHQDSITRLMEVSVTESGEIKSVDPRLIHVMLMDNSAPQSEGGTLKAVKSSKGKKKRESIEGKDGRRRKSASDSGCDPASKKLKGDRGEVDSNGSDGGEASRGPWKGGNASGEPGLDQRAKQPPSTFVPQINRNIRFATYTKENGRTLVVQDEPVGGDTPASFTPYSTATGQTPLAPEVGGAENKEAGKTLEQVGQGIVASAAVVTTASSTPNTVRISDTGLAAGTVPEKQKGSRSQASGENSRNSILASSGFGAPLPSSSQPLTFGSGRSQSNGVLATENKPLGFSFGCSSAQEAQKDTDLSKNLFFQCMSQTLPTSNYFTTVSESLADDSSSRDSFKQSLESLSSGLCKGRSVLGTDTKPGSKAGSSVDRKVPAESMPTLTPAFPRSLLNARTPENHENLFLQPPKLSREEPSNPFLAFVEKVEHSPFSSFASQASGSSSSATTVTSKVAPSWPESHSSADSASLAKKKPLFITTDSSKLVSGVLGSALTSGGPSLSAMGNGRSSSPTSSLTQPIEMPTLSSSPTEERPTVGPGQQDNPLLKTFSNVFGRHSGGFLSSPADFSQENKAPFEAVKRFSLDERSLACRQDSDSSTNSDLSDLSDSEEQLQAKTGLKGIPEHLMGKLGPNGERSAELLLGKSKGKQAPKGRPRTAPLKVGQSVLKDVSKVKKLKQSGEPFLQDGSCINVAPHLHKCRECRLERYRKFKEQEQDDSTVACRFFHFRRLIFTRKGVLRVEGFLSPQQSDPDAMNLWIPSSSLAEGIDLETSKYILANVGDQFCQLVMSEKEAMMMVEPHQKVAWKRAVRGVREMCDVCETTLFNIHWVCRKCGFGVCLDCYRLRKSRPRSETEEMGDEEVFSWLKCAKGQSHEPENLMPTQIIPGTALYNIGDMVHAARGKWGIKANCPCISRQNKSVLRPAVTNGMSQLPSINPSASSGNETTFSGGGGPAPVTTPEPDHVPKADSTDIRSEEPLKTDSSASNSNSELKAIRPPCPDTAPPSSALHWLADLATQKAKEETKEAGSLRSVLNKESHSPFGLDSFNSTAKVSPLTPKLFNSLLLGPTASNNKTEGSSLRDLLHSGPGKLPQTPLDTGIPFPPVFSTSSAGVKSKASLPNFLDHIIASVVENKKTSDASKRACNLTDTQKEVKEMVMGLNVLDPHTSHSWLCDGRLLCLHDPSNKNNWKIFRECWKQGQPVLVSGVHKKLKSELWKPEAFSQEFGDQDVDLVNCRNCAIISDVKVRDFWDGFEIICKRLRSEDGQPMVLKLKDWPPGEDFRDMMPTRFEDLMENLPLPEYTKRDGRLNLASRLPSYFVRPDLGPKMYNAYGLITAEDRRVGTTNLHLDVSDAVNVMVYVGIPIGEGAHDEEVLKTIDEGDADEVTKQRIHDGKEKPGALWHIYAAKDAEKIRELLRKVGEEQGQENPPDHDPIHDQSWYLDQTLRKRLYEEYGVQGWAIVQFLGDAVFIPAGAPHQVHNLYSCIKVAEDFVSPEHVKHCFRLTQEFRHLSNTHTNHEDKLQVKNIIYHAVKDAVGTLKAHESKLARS

[3] = target: T2, Lysine-specific demethylase 2B (Homo sapiens) (UniProt Q8NHM5); assay: Inhibition of KDM2B (unknown origin) at 10 uM
T2 sequence (whole entry): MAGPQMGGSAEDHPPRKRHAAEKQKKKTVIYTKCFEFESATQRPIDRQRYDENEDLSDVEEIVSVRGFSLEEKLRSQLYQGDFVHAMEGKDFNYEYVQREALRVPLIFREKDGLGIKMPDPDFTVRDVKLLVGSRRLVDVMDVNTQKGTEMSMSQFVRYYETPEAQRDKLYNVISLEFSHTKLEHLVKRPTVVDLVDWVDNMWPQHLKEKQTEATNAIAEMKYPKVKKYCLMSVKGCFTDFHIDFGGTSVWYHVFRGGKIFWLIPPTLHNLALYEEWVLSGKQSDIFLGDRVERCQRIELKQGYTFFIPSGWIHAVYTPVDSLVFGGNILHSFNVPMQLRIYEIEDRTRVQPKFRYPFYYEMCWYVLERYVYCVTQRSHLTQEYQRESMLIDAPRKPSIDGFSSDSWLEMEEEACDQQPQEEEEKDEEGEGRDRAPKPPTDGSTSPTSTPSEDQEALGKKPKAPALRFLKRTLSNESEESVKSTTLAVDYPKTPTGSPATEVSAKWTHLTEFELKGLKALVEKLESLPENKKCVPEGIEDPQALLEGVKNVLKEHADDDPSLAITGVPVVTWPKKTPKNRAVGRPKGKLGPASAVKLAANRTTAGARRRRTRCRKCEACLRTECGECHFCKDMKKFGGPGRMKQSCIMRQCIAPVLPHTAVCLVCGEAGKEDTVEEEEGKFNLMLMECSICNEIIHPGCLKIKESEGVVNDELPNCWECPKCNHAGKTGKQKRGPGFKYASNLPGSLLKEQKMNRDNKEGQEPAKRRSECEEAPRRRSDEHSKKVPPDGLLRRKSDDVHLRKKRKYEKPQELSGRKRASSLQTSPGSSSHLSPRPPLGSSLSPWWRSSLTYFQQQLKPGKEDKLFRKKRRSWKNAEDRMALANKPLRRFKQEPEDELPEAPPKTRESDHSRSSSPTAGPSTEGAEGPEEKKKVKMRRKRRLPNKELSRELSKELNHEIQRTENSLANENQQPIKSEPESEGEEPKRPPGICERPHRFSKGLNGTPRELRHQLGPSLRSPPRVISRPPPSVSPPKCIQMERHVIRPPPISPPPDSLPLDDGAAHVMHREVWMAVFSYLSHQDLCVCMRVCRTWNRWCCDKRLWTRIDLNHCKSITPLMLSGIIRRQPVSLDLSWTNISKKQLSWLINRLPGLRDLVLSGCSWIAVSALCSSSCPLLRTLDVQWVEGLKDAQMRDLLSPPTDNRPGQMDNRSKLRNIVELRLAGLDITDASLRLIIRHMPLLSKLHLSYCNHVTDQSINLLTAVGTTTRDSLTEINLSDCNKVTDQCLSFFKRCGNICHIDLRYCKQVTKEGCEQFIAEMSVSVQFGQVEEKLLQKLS

[4] = target: Lysine-specific demethylase 5A (Homo sapiens) (UniProt P29375); assay: Inhibition of KDM5A (unknown origin) at 10 uM
Lysine-specific demethylase 5A (Homo sapiens), sequence (P29375 whole entry): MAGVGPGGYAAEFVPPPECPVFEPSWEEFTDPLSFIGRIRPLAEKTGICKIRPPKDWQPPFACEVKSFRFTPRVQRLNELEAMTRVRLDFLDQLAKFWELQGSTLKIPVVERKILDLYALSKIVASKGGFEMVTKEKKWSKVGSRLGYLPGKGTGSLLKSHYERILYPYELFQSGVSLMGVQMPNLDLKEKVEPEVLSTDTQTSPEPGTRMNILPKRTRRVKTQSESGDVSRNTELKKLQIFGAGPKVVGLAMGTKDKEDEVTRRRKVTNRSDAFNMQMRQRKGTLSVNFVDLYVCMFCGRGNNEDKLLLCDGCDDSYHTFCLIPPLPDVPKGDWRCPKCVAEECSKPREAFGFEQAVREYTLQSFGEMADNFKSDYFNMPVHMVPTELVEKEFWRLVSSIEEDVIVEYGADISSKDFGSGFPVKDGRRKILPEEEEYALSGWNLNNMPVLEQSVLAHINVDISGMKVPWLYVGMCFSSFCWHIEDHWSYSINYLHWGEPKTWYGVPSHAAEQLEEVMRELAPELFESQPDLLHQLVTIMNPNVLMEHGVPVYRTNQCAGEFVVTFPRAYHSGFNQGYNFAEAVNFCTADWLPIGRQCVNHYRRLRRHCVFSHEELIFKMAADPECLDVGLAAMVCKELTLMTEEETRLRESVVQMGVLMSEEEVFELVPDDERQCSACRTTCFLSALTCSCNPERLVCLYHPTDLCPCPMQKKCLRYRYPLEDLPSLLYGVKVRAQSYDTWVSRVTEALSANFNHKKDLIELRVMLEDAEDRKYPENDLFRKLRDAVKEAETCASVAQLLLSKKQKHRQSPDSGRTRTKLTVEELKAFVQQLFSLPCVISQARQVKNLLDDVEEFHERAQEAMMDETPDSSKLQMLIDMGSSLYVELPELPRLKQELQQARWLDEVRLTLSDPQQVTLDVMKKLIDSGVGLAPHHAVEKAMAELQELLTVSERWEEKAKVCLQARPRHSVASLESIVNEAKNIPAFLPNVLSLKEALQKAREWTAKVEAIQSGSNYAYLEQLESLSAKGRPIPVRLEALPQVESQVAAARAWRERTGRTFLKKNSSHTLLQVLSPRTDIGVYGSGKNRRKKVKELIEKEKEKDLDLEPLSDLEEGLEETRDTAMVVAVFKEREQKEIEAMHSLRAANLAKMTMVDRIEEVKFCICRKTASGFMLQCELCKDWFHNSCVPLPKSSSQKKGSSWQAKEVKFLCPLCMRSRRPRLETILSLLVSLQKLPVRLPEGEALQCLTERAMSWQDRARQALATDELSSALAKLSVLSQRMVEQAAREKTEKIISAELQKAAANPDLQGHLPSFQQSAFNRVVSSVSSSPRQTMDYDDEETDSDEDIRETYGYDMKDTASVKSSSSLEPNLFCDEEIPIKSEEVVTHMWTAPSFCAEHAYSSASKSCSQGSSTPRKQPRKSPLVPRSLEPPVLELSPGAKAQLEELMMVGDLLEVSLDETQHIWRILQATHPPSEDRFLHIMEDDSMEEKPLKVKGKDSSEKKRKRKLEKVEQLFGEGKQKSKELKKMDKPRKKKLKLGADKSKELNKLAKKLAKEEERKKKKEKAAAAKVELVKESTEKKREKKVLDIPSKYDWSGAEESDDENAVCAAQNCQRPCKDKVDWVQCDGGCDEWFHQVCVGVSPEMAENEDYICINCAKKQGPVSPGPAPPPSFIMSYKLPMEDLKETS

[5] = target: T3, Lysine-specific demethylase 4D (Homo sapiens, UniProt Q6B0I6); assay: Inhibition of KDM4D (unknown origin) using biotinylated H3 derived peptide as substrate preincubated for 15 mins followed by substrate addition measured after 1 hr by AlphaLISA method
T3 sequence (Q6B0I6 whole entry): T1 sequence (whole entry)

An inhibition [1] of 22.9% was found for `Cc1nc2c(C#N)cnn2c2ncccc12` in this work.

An inhibition [2] of 90.7%, an inhibition [1] of 99.7% and an inhibition [3] of 84.1% were found for `Oc1ccccc1-c1ccn(-c2nccc(N3CCOCC3)n2)n1` in this work. For the same molecule, the inhibition [4] was 73.6%.

An inhibition [1] of 9.63% was found for `CS(=O)(=O)c1ccc2c(O)nc3c(C#N)cnn3c2c1` in this work.

An inhibition [1] of 9.03% was found for `N#Cc1cnn2c1nc(O)c1ccccc12` in this work.

An inhibition [1] of 8.63% was found for `N#Cc1cnn2c1nc(O)c1cccc(C(F)(F)F)c12` in this work.

An inhibition [1] of 1.91% was found for `N#Cc1cnn2c1nc(O)c1cc([N+](=O)[O-])cnc12` in this work.

An inhibition [1] of -0.35% was found for `N#Cc1cnn2c1nc(O)c1ccc(C(F)(F)F)cc12` in this work.

An inhibition [1] of -2.25% was found for `N#Cc1cnn2c1nc(O)c1ccc(N)cc12` in this work.

An inhibition [1] of 78.1% and a pIC50 [5] of 5.73 were found for `CCc1nn2c(nc(O)c3cccnc32)c1C#N` in this work.

An inhibition [1] of 85.1% and a pIC50 [5] of 5.39 were found for `N#Cc1cnn2c1ncc1cccnc12` in this work.

An inhibition [1] of 5.26% was found for `N#Cc1cnn2c1nc(O)c1ncccc12` in this work.

An inhibition [2] of -2.18%, an inhibition [1] of 73.3% and an inhibition [3] of -4.85% were found for `N#Cc1cnn2c1nc(O)c1cccc([N+](=O)[O-])c12` in this work. The inhibition [4] was 23.1% and the pIC50 [5] was 5.50.

An inhibition [1] of 88.8% and a pIC50 [5] of 6.39 were found for `Cc1nn2c(nc(O)c3cccnc32)c1C#N` in this work.

An inhibition [1] of 20.1% was found for `N#Cc1cnn2c1nc(O)c1cccnc12` in this work.

An inhibition [1] of 62.3% was found for `N#Cc1cnn2c1nc(O)c1cccc(N)c12` in this work.

An inhibition [1] of 23.6% was found for `N#Cc1c(-c2ccccc2)nn2c1nc(O)c1cccnc12` in this work.

An inhibition [1] of 21.9% was found for `Cc1ccc2c(O)nc3c(C#N)cnn3c2n1` in this work.

An inhibition [1] of 10.4% was found for `N#Cc1cnn2c1nc(O)c1ccc(C(F)(F)F)nc12` in this work.

An inhibition [1] of 4.75% was found for `N#Cc1cnn2c1nc(O)c1ccc([N+](=O)[O-])cc12` in this work.

An inhibition [1] of 16.4% was found for `N#Cc1cnn2c1nc(O)c1cnccc12` in this work.

An inhibition [1] of 68.1% was found for `N#Cc1cnn2c1nc(O)c1ccncc12` in this work.

An inhibition [1] of 58.7% was found for `N#Cc1cnn2c1nc(O)c1ccc(Cl)nc12` in this work.
